Literature values as cited in US11206824B2, “Gas delivery device comprising a gas releasing molecule and a gas permeable membrane” (Julius-Maximilians-Universitaet Wuerzburg, priority 2015, dated 2021).

Legend:
[1] = test system: liver transplantation associated I/R injury; settings: pre-treatment of donors, inhaled
[2] = test system: renal warm ischemia reperfusion injury; settings: i.v. 20 mg/kgBW, mice
rodent liver = settings: 50 μM in modified UW solution, 48 h cold ischemia
rodent kidney grafts = settings: 1 ml, 100 μmol/L in UW solution, 26 h cold preservation

Compound: [C-]#[O+] [CO, carbon monoxide]
- liver transplantation associated I/R injury [1]: ameliorates

Compound: [C-]#[O+].[C-]#[O+].[C-]#[O+].[C-]#[O+].[C-]#[O+].[C-]#[O+].[Cl][Ru][Cl].[Cl][Ru][Cl] [CORM-2, tricarbonyldichlororuthenium(II) dimer]
- protection against lethal renal warm ischemia reperfusion injury [2]: almost completely protects

Compound: NCC(=O)O.[C-]#[O+].[C-]#[O+].[C-]#[O+].[Cl][Ru] [CORM-3, tricarbonylchloro ruthenium-glycinato]
- perfusion flow, intrahepatic resistance and metabolic capacity (rodent liver): improved
- cellular and graft injury and survival (rodent kidney grafts): significant impact on decreasing cellular and graft injury, and improving survival
